Assay results from ChEMBL document CHEMBL1201862, “PubChem BioAssay data set” (2004).
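96-well plates; 48 h exposure; 5 concentrations. Endpoints by linear interpolation between flanking doses. Not reached: highest tested concentration assigned. At the GI50, growth is halved.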 The source made the active and inactive calls. Rule as the data show it: active = GI50 up to about 1.1 µM and inactive = higher.

Columns and labels:
Experiment in all cases: NCI anticancer screen, dose series, 48 h
[1] = tested on: SF-295
[2] = tested on: ACHN
[3] = tested on: T47D
[4] = tested on: SNB-19
[5] = tested on: OVCAR-8
[6] = tested on: SK-OV-3
[7] = tested on: NCI-H23
[8] = tested on: NCI-H460
[9] = tested on: NCI-H522
[10] = tested on: OVCAR-4
[11] = tested on: HL-60
[12] = tested on: COLO 205
[13] = tested on: SF-268
[14] = tested on: HOP-92
[15] = tested on: A549
[16] = tested on: MDA-N
[17] = tested on: DU-145
[18] = tested on: UACC-62
[19] = tested on: IGROV-1
[20] = tested on: BT-549

Compound	GI50 [1]	GI50 [2]	GI50 [3]	GI50 [4]	GI50 [5]	GI50 [6]	GI50 [7]	GI50 [8]	GI50 [9]	GI50 [10]	GI50 [11]	GI50 [12]	GI50 [13]	GI50 [14]	GI50 [15]	GI50 [16]	GI50 [17]	GI50 [18]	GI50 [19]	GI50 [20]
Cc1ccc(/N=N/c2ccc(N)cc2C)c(S(N)(=O)=O)c1	56.1 µM (inactive)	90.6 µM (inactive)	48.8 µM (inactive)	> 100 µM (inactive)	76.7 µM (inactive)	> 100 µM (inactive)	> 100 µM (inactive)	49.3 µM (inactive)	36.4 µM (inactive)	> 100 µM (inactive)	29.6 µM (inactive)	76.7 µM (inactive)	> 100 µM (inactive)	32.1 µM (inactive)	50.5 µM (inactive)	71.9 µM (inactive)	> 100 µM (inactive)	88.9 µM (inactive)	77.3 µM (inactive)	> 100 µM (inactive)
O=C1c2ccccc2-c2[nH]c3cn[nH]c(=O)c3c21	> 100 µM (inactive)	85.9 µM (inactive)	> 100 µM (inactive)	> 100 µM (inactive)	> 100 µM (inactive)	> 100 µM (inactive)	> 100 µM (inactive)	64.9 µM (inactive)	13.4 µM (inactive)	> 100 µM (inactive)	> 100 µM (inactive)	89.5 µM (inactive)	99.1 µM (inactive)	16.4 µM (inactive)	> 100 µM (inactive)	61.4 µM (inactive)	> 100 µM (inactive)	45.3 µM (inactive)	23.1 µM (inactive)	> 100 µM (inactive)
C#C[C@]1(O)CC[C@H]2[C@@H]3CCC4=C/C(=N/OC(=O)c5cccc6c(=O)c7ccccc7[nH]c56)CCC4[C@H]3CC[C@@]21CC (stereo partly specified)	3.69 µM (inactive)	26.2 µM (inactive)	24.8 µM (inactive)	69.3 µM (inactive)	19.8 µM (inactive)	63.1 µM (inactive)	26.4 µM (inactive)	14.3 µM (inactive)	20.8 µM (inactive)	49.3 µM (inactive)	2.44 µM (inactive)	37.2 µM (inactive)	66.4 µM (inactive)	42.6 µM (inactive)	41.7 µM (inactive)	26.4 µM (inactive)	55.2 µM (inactive)	20.4 µM (inactive)	27.3 µM (inactive)	17 µM (inactive)
OCC(O)COCn1cc(Cn2ncc3c(O)ncnc32)nn1 (stereo unspecified)	> 100 µM (inactive)	> 100 µM (inactive)	> 100 µM (inactive)	> 100 µM (inactive)	> 100 µM (inactive)	> 100 µM (inactive)	> 100 µM (inactive)	–	28.5 µM (inactive)	> 100 µM (inactive)	> 100 µM (inactive)	> 100 µM (inactive)	–	> 100 µM (inactive)	> 100 µM (inactive)	> 100 µM (inactive)	> 100 µM (inactive)	> 100 µM (inactive)	> 100 µM (inactive)	> 100 µM (inactive)
COc1c(O)cc2c(c1O)C1O[C@H](CO)C(O)[C@H](O)[C@H]1OC2=O (stereo partly specified)	> 100 µM (inactive)	> 100 µM (inactive)	> 100 µM (inactive)	> 100 µM (inactive)	> 100 µM (inactive)	> 100 µM (inactive)	> 100 µM (inactive)	> 100 µM (inactive)	> 100 µM (inactive)	> 100 µM (inactive)	> 100 µM (inactive)	> 100 µM (inactive)	> 100 µM (inactive)	> 100 µM (inactive)	> 100 µM (inactive)	> 100 µM (inactive)	> 100 µM (inactive)	–	> 100 µM (inactive)	> 100 µM (inactive)
NS(=O)(=O)c1ccc(/N=N/c2nc3[nH]cnc(=S)c3[nH]2)cc1	1.59 µM (inactive)	3.1 µM (inactive)	1.16 µM (inactive)	> 100 µM (inactive)	0.593 µM (active)	0.411 µM (active)	1.74 µM (inactive)	0.82 µM (active)	0.887 µM (active)	4.51 µM (inactive)	2.77 µM (inactive)	2.43 µM (inactive)	0.885 µM (active)	11.1 µM (inactive)	4.93 µM (inactive)	0.684 µM (active)	0.638 µM (active)	0.388 µM (active)	7.29 µM (inactive)	1.3 µM (inactive)
CCCCCCCCCCCCCCCCOCC(COP(=O)([O-])OCC[n+]1ccc(N(C)C)cc1)OCC (stereo unspecified)	16.5 µM (inactive)	16.8 µM (inactive)	18 µM (inactive)	2.8 µM (inactive)	19.5 µM (inactive)	–	18.6 µM (inactive)	12.1 µM (inactive)	12.8 µM (inactive)	15.8 µM (inactive)	1.52 µM (inactive)	13.6 µM (inactive)	10.8 µM (inactive)	17 µM (inactive)	16.2 µM (inactive)	17 µM (inactive)	16.5 µM (inactive)	12.7 µM (inactive)	16.9 µM (inactive)	7.74 µM (inactive)
